Measured values from US20260022142A1, “MACROCYCLIC IMMUNOMODULATORS” (Bristol-Myers Squibb Company, priority 2022, published 2026).
pIC50: −log10 of the molar value. Numbered stars: 1 amine (or outer) side, 2 acyl side, 3 side chain; on linkers, the order of the positions; unused ones are H or OH. Bridge positions count the residues as written; N and C are the ends. Square brackets hold non-standard residues; d marks the D form. Peptide text beside a SMILES is read from it. * marks the point of attachment. ξ: configuration not given here. Bip = N[C@@H](Cc1ccc(-c2ccccc2)cc1)C(=O)O; X13 = N[C@@H](CN*)C(=O)NCCCCCCCCCCC(=O)O; X14 = N[C@H](CN*)C(=O)NCCCCCCCCCCC(=O)O; Phe(3-Me) = Cc1cccc(C[C@H](N)C(=O)O)c1; X16 = O=C(C1CCC(CN[*:1])CC1)[*:2]; X6 = O=C(Cc1ccc(CN[*:1])cc1)[*:2]; hhGln = NC(=O)CCCC[C@H](N)C(=O)O; Cha = N[C@@H](CC1CCCCC1)C(=O)O; Cit = NC(=O)NCCC[C@H](N)C(=O)O; Carboxymethyl = O=C(O)C*; Orn = NCCC[C@H](N)C(=O)O; Aun = NCCCCCCCCCCC(=O)O; Dab = NCC[C@H](N)C(=O)O; ξE = NC(CCC(=O)O)C(=O)O; Dap = NC[C@H](N)C(=O)O; AEEA = NCCOCCOCC(=O)O

Molecular target: T1, PD-1/PD-L1 interaction (PE-labeled human PD-L1-Ig binding to Jurkat cell line over-expressing human PD-1) (Homo sapiens, UniProt Q15116)
T1 construct: expressed in transfected cells; host or cells: Jurkat
Assay: Jurkat-PD-1 Cell Binding High-Content Screening Assay (CBA)
Assay type: cell-based
Conditions: Jurkat cell line over-expressing human PD-1; PE-labeled PD-L1-Ig 20 nM final; read-out: Jurkat hPD1-PDL1 IC50
Summary of the method: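 Binding of fluorescent PD-L1-Ig (phycoerythrin on Ig tag, 20 nM final, 1 h) measured by high-content imaging of fixed, Hoechst-counterstained Jurkat-hPD-1 cells. Compound added 2 h at 37° C beforehand, in DMEM with 10% fetal calf serum.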

T1 sequence (Q15116 25-288): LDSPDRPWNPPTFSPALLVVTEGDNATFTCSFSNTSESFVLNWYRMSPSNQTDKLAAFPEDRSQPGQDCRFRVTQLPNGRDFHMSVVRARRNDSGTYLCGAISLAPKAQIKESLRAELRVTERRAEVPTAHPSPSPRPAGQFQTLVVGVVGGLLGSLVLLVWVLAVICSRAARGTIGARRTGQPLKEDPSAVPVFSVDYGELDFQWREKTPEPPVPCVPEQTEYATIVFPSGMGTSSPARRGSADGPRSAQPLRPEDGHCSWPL

SMILES | pIC50
Cc1cccc(C[C@@H]2NC(=O)[C@H](CC(=O)O)NC(=O)[C@H](Cc3ccc(OCC(=O)O)cc3)NC(=O)[C@H](CN)NC(=O)CSC[C@@H](C(=O)NCCCCCCCCCCC(=O)O)NC(=O)[C@H](CN)NC(=O)[C@H](C(C)C)NC(=O)[C@H](CC3CCCCC3)NC(=O)[C@H](CCN)NC(=O)[C@@H](CC(C)C)NC(=O)[C@H](CCCN)NC(=O)[C@H](C(C)C)NC(=O)[C@H](Cc3ccc(-c4ccccc4)cc3)NC(=O)[C@H](C(C)C)NC2=O)c1 [Compound 2604] ({CH2CO}-[Dap]Y(Carboxymethyl)D[Phe(3-Me)]V[Bip]V[Orn][dL][Dab][Cha]V[Dap]C[Aun]-OH; thioether N-14) | 7.88
Cc1cccc(C[C@@H]2NC(=O)[C@H](CC(=O)O)NC(=O)[C@H](Cc3ccc(OCC(=O)O)cc3)NC(=O)[C@H](CN)NC(=O)CSC[C@@H](C(=O)NCCCCCCCCCCC(=O)O)NC(=O)[C@H](CCCN)NC(=O)[C@H](C(C)C)NC(=O)[C@H](CC3CCCCC3)NC(=O)[C@H](CCN)NC(=O)[C@@H](CC(C)C)NC(=O)[C@H](CCCN)NC(=O)[C@H](C(C)C)NC(=O)[C@H](Cc3ccc(-c4ccccc4)cc3)NC(=O)[C@H](C(C)C)NC2=O)c1 [Compound 2605] ({CH2CO}-[Dap]Y(Carboxymethyl)D[Phe(3-Me)]V[Bip]V[Orn][dL][Dab][Cha]V[Orn]C[Aun]-OH; thioether N-14) | 8.25
CC(C)C[C@H]1NC(=O)[C@H](CCCN)NC(=O)[C@H](C(C)C)NC(=O)[C@H](Cc2ccc(-c3ccccc3)cc2)NC(=O)[C@H](C(C)C)NC(=O)[C@H](Cc2c[nH]c3ccccc23)NC(=O)[C@H](CC(=O)O)NC(=O)[C@H](Cc2ccc(OCC(=O)O)cc2)NC(=O)[C@H](Cc2ccc(OCC(=O)O)cc2)NC(=O)CSC[C@@H](C(=O)NCCCCCCCCCCC(=O)O)NC(=O)[C@H](CCCN)NC(=O)[C@H](C(C)C)NC(=O)[C@H](CC2CCCCC2)NC(=O)[C@H](CCN)NC1=O [Compound 2607] ({CH2CO}-Y(Carboxymethyl)Y(Carboxymethyl)DWV[Bip]V[Orn][dL][Dab][Cha]V[Orn]C[Aun]-OH; thioether N-14) | 7.53
CC(C)C[C@H]1NC(=O)[C@H](CCCN)NC(=O)[C@H](C(C)C)NC(=O)[C@H](Cc2ccc(-c3ccccc3)cc2)NC(=O)[C@H](C(C)C)NC(=O)[C@H](Cc2c[nH]c3ccccc23)NC(=O)[C@H](CC(=O)O)NC(=O)[C@H](Cc2ccc(OCC(=O)O)cc2)NC(=O)[C@H](Cc2ccc(OCC(=O)O)cc2)NC(=O)CSC[C@@H](C(=O)NCCCCCCCCCCC(=O)O)NC(=O)[C@H](CN)NC(=O)[C@H](C(C)C)NC(=O)[C@H](CC2CCCCC2)NC(=O)[C@H](CCN)NC1=O [Compound 2608] ({CH2CO}-Y(Carboxymethyl)Y(Carboxymethyl)DWV[Bip]V[Orn][dL][Dab][Cha]V[Dap]C[Aun]-OH; thioether N-14) | 7.50
Cc1cccc(C[C@@H]2NC(=O)[C@H](CC(=O)O)NC(=O)[C@H](Cc3ccc(OCC(=O)O)cc3)NC(=O)[C@H](CN)NC(=O)CSC[C@@H](C(=O)N[C@@H](C)C(=O)NC(CCC(=O)O)C(=O)NCCOCCOCC(=O)NCCCCCCCCCCC(=O)O)NC(=O)[C@H](CCCN)NC(=O)[C@H](C(C)C)NC(=O)[C@H](CC3CCCCC3)NC(=O)[C@H](CCN)NC(=O)[C@@H](CC(C)C)NC(=O)[C@H](CCCN)NC(=O)[C@H](CCCCC(N)=O)NC(=O)[C@H](Cc3ccc(-c4ccccc4)cc3)NC(=O)[C@H](C(C)C)NC2=O)c1 (stereo partly drawn) [Compound 2615] ({CH2CO}-[Dap]Y(Carboxymethyl)D[Phe(3-Me)]V[Bip][hhGln][Orn][dL][Dab][Cha]V[Orn]CA[ξE][AEEA][Aun]-OH; thioether N-14) | 8.07
Cc1cccc(C[C@@H]2NC(=O)[C@H](CC(=O)O)NC(=O)[C@H](Cc3ccc(OCC(=O)O)cc3)NC(=O)[C@H](CN)NC(=O)CSC[C@@H](C(=O)N[C@@H](C)C(=O)NC(CCC(=O)O)C(=O)NCCOCCOCC(=O)NCCCCCCCCCCC(=O)O)NC(=O)[C@H](CN)NC(=O)[C@H](C(C)C)NC(=O)[C@H](CC3CCCCC3)NC(=O)[C@H](CCN)NC(=O)[C@@H](CC(C)C)NC(=O)[C@H](CCCN)NC(=O)[C@H](CCCNC(N)=O)NC(=O)[C@H](Cc3ccc(-c4ccccc4)cc3)NC(=O)[C@H](C(C)C)NC2=O)c1 (stereo partly drawn) [Compound 2616] ({CH2CO}-[Dap]Y(Carboxymethyl)D[Phe(3-Me)]V[Bip][Cit][Orn][dL][Dab][Cha]V[Dap]CA[ξE][AEEA][Aun]-OH; thioether N-14) | 7.79
Cc1cccc(C[C@@H]2NC(=O)[C@H](CC(=O)O)NC(=O)[C@H](Cc3ccc(OCC(=O)O)cc3)NC(=O)[C@H](CN)NC(=O)CSC[C@@H](C(=O)N[C@@H](C)C(=O)N[C@@H](CCC(=O)O)C(=O)NCCCCCCCCCCC(=O)O)NC(=O)[C@H](CCCN)NC(=O)[C@H](C(C)C)NC(=O)[C@H](CC3CCCCC3)NC(=O)[C@H](CCN)NC(=O)[C@@H](CC(C)C)NC(=O)[C@H](CCCN)NC(=O)[C@H](CCCNC(N)=O)NC(=O)[C@H](Cc3ccc(-c4ccccc4)cc3)NC(=O)[C@H](C(C)C)NC2=O)c1 [Compound 2617] ({CH2CO}-[Dap]Y(Carboxymethyl)D[Phe(3-Me)]V[Bip][Cit][Orn][dL][Dab][Cha]V[Orn]CAE[Aun]-OH; thioether N-14) | 8.20
Cc1cccc(C[C@@H]2NC(=O)[C@H](CC(=O)O)NC(=O)[C@H](Cc3ccc(OCC(=O)O)cc3)NC(=O)[C@H](CN)NC(=O)CSC[C@@H](C(=O)N[C@@H](C)C(=O)N[C@@H](CCC(=O)O)C(=O)NCCCCCCCCCCC(=O)O)NC(=O)[C@H](CN)NC(=O)[C@H](C(C)C)NC(=O)[C@H](CC3CCCCC3)NC(=O)[C@H](CCN)NC(=O)[C@@H](CC(C)C)NC(=O)[C@H](CCCN)NC(=O)[C@H](CCCNC(N)=O)NC(=O)[C@H](Cc3ccc(-c4ccccc4)cc3)NC(=O)[C@H](C(C)C)NC2=O)c1 [Compound 2618] ({CH2CO}-[Dap]Y(Carboxymethyl)D[Phe(3-Me)]V[Bip][Cit][Orn][dL][Dab][Cha]V[Dap]CAE[Aun]-OH; thioether N-14) | 7.90
Cc1cccc(C[C@@H]2NC(=O)[C@H](CC(=O)O)NC(=O)[C@H](Cc3ccc(OCC(=O)O)cc3)NC(=O)[C@H](CN)NC(=O)CSC[C@@H](C(=O)N[C@@H](C)CC(=O)NCCCCCCCCCCC(=O)O)NC(=O)[C@H]([C@@H](C)O)NC(=O)[C@H](C(C)C)NC(=O)[C@H](CC3CCCCC3)NC(=O)[C@H](CCN)NC(=O)[C@@H](CC(C)C)NC(=O)[C@H](CCCN)NC(=O)[C@H](CCCNC(N)=O)NC(=O)[C@H](Cc3ccc(-c4ccccc4)cc3)NC(=O)[C@H](C(C)C)NC2=O)c1 [Compound 2619] | 7.61
Cc1cccc(C[C@@H]2NC(=O)[C@H](CC(=O)O)NC(=O)[C@H](Cc3ccc(OCC(=O)O)cc3)NC(=O)[C@H](CN)NC(=O)CSC[C@@H](C(=O)N[C@H](C)CC(=O)NCCCCCCCCCCC(=O)O)NC(=O)[C@H]([C@@H](C)O)NC(=O)[C@H](C(C)C)NC(=O)[C@H](CC3CCCCC3)NC(=O)[C@H](CCN)NC(=O)[C@@H](CC(C)C)NC(=O)[C@H](CCCN)NC(=O)[C@H](CCCNC(N)=O)NC(=O)[C@H](Cc3ccc(-c4ccccc4)cc3)NC(=O)[C@H](C(C)C)NC2=O)c1 [Compound 2620] | 7.55
Cc1cccc(C[C@@H]2NC(=O)[C@H](CC(=O)O)NC(=O)[C@H](Cc3ccc(OCC(=O)O)cc3)NC(=O)[C@H](CN)NC(=O)CSC[C@@H](C(=O)NC[C@H](N)C(=O)NCCCCCCCCCCC(=O)O)NC(=O)[C@H]([C@@H](C)O)NC(=O)[C@H](C(C)C)NC(=O)[C@H](CC3CCCCC3)NC(=O)[C@H](CCN)NC(=O)[C@@H](CC(C)C)NC(=O)[C@H](CCCN)NC(=O)[C@H](CCCNC(N)=O)NC(=O)[C@H](Cc3ccc(-c4ccccc4)cc3)NC(=O)[C@H](C(C)C)NC2=O)c1 [Compound 2621] ({CH2CO}-[Dap]Y(Carboxymethyl)D[Phe(3-Me)]V[Bip][Cit][Orn][dL][Dab][Cha]VTC-X13; thioether N-14) | 7.77
Cc1cccc(C[C@@H]2NC(=O)[C@H](CC(=O)O)NC(=O)[C@H](Cc3ccc(OCC(=O)O)cc3)NC(=O)[C@H](CN)NC(=O)CSC[C@@H](C(=O)NC[C@@H](N)C(=O)NCCCCCCCCCCC(=O)O)NC(=O)[C@H]([C@@H](C)O)NC(=O)[C@H](C(C)C)NC(=O)[C@H](CC3CCCCC3)NC(=O)[C@H](CCN)NC(=O)[C@@H](CC(C)C)NC(=O)[C@H](CCCN)NC(=O)[C@H](CCCNC(N)=O)NC(=O)[C@H](Cc3ccc(-c4ccccc4)cc3)NC(=O)[C@H](C(C)C)NC2=O)c1 [Compound 2622] ({CH2CO}-[Dap]Y(Carboxymethyl)D[Phe(3-Me)]V[Bip][Cit][Orn][dL][Dab][Cha]VTC-X14; thioether N-14) | 7.51
Cc1cccc(C[C@@H]2NC(=O)[C@H](CC(=O)O)NC(=O)[C@H](Cc3ccc(OCC(=O)O)cc3)NC(=O)[C@H](CN)NC(=O)CSC[C@@H](C(=O)NCC3CCC(C(=O)NCCCCCCCCCCC(=O)O)CC3)NC(=O)[C@H]([C@@H](C)O)NC(=O)[C@H](C(C)C)NC(=O)[C@H](CC3CCCCC3)NC(=O)[C@H](CCN)NC(=O)[C@@H](CC(C)C)NC(=O)[C@H](CCCN)NC(=O)[C@H](CCCNC(N)=O)NC(=O)[C@H](Cc3ccc(-c4ccccc4)cc3)NC(=O)[C@H](C(C)C)NC2=O)c1 (stereo partly drawn) [Compound 2623] ({CH2CO}-[Dap]Y(Carboxymethyl)D[Phe(3-Me)]V[Bip][Cit][Orn][dL][Dab][Cha]VTC[X16][Aun]-OH; thioether N-14) | 7.56
Cc1cccc(C[C@@H]2NC(=O)[C@H](CC(=O)O)NC(=O)[C@H](Cc3ccc(OCC(=O)O)cc3)NC(=O)[C@H](CN)NC(=O)CSC[C@@H](C(=O)NCc3ccc(CC(=O)NCCCCCCCCCCC(=O)O)cc3)NC(=O)[C@H]([C@@H](C)O)NC(=O)[C@H](C(C)C)NC(=O)[C@H](CC3CCCCC3)NC(=O)[C@H](CCN)NC(=O)[C@@H](CC(C)C)NC(=O)[C@H](CCCN)NC(=O)[C@H](CCCNC(N)=O)NC(=O)[C@H](Cc3ccc(-c4ccccc4)cc3)NC(=O)[C@H](C(C)C)NC2=O)c1 [Compound 2624] ({CH2CO}-[Dap]Y(Carboxymethyl)D[Phe(3-Me)]V[Bip][Cit][Orn][dL][Dab][Cha]VTC[X6][Aun]-OH; thioether N-14) | 7.46
